Measurements reported in patent US7932261B2, “Macrocycle derivatives useful as inhibitors of β-secretase (BACE)” (Janssen Pharmaceutica NV, priority 2006, dated 2011).
Like-named read-outs stand apart in the source and are kept apart here.

Key:
Format in all cases: biochemical
β-secretase (BACE) [1] = target: T1, β-secretase (BACE) (Homo sapiens, UniProt P56817); assay: in vitro BACE FS1 % Inhibition Assay (Example 13); conditions: FS1 substrate, pH 5; for inhibition at 0.3 µM: read-out: % Inhibition (Example 13) @ 0.3 μM; for inhibition at 0.3 µM / % Inhibition (Example 13) @ 0.3 μM: 0.3 μM compound; for inhibition at 1 µM: read-out: % Inhibition (Example 13) @ 1 μM; for inhibition at 1 µM / % Inhibition (Example 13) @ 1 μM: 1 μM compound; for inhibition at 3 µM: read-out: % Inhibition (Example 13) @ 3 μM; for inhibition at 3 µM / % Inhibition (Example 13) @ 3 μM: 3 μM compound
T1 construct: purchased Panvera
Description: (§1) The following assay buffers were prepared and used in this assay: (1) enzyme assay buffer (0.05 M sodium acetate, pH5, 0.1% PEG8000 (w/v)), (2) substrate assay buffer (0.05 M sodium acetate, pH5), and (3) compound vehicle (30% DMSO in 50 mM HEPES, pH 7.4).
(§2) The FS1-substrate stock solution was prepared in DMSO as a 10 mg/mL solution. The FS1-substrate working solution was prepared by diluting the 10 mg/mL stock solution with substrate assay buffer to a final concentration of 300 μg/mL. The α-secretase (BACE) working solution was prepared by diluting a 0.83 mg/mL BACE stock solution with enzyme assay buffer to a final concentration of 4 μg/mL.
Test compounds were dissolved in DMSO to 10 mM.
(§3) The screening procedure for this assay was as follows: 15 μL of BACE working solution was pipetted into each well of a 96-well plate. To each well was then pipetted 2 μL of test compound at the selected concentration. Test compound and BACE were then mixed with a pipettor and incubated for 20 min at room temperature. To each well was then added 10 µL of the FS1 substrate working solution. The plates were then incubated for 1 hour at room temperature.
The procedure for the blank (negative control) was as follows. 15 μL of assay buffer was pipetted into each well to be used as a blank control. To each well was then added 2 μL of vehicle and 10 μL of FS1-substrate working solution. The plates were then incubated for 1 hour at room temperature.
(§4) The procedure for the positive control was as follows: 15 μL of BACE working solution was pipetted into each well to be used as a positive control. To each well was then pipetted 2 μL of vehicle. Vehicle and BACE were then mixed with a pipettor and incubated for 20 min at room temperature. To each well was then added 10 μL of the FS1 substrate working solution. The plates were then incubated for 1 hour at room temperature.
For test compounds, % inhibition was determined at each concentration as follows: […]

β-secretase (BACE) [2] = target: T1, β-secretase (BACE); assay: in vitro BACE Assay, Ki (Example 14)
Description: as §1
as §2, with “β-secretase” for “α-secretase”
Test compounds were dissolved in DMSO at 10 mM.
as §3, with “The” for “The screening”, “μL” for “µL”, “solution.” for “solution. The plates were then incubated for 1 hour at room temperature.”
as §4, with “solution.” for “solution. The plates were then incubated for 1 hour at room temperature.”
For test compounds, Ki inhibition was determined as follows: For each compound concentration and positive control, rate of cleavage of substrate (Vi, where i=compound concentration in μM) was determined as Δ Fluorescence/Δ time (min). Cleavage rates (Vi) were plotted as a function of inhibitor concentration in μM [I]. The Ki was then determined by fitting the following equation to the graph of [I] vs. Vi Y=aVmax/(50+24*(1+X/Ki)),

human BACE-1 = human BACE-1 (Homo sapiens, UniProt P56817); assay: in vitro BACE Assay run by CEREP (Example 15); conditions: for inhibition at 0.3 µM / % Inhibition 0.3 μM: 0.3 μM compound; for inhibition at 1 µM: 1 μM compound
Description: More specifically the assay, run at 50 μL in a 96 well plate, evaluated the effect of test compound on the activity of the human BACE-1 quantified by measuring the formation of Mca-S-E-V—N-L-NH2 from Mca-S-E-V—N-L-D-A-E-F—R—K(Dnp)-R—R—NH2, using a recombinant enzyme.
The test compound, reference compound or water (control) was added to a buffer containing 0.09 M sodium acetate (pH 4.5) and 0.25 μg BACE-1. Compound interference with the fluorimetric detection method due to autofluorescence was then checked by measurements at the wavelengths defined to evaluate the enzyme activity. […] For control basal measurement, the substrate was omitted from the reaction mixture. […] The standard inhibitory reference compound was OM99-2, which was tested in each experiment at several concentrations to obtain an inhibition curve from which its IC50 value was calculated.

[3] = recombinant enzyme, pH 4.5, 60 min at 37° C.
[4] = recombinant enzyme, pH 4.5, 60 min at 37° C., read-out: IC50

T1 sequence (P56817 46-501): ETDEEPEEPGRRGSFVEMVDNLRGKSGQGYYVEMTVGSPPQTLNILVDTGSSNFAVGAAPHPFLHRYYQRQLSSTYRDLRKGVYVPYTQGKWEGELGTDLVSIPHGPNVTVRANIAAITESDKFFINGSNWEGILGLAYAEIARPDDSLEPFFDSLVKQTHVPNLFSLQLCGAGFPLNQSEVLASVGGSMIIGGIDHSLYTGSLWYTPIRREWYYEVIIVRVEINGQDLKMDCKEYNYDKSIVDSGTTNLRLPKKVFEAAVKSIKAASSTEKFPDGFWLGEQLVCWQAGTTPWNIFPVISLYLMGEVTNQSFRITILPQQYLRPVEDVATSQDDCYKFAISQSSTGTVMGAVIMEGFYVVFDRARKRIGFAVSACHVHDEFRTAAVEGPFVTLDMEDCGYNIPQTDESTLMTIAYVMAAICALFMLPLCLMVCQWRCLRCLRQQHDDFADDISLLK
human BACE-1, sequence (P56817 46-501): as above

## CCOC(=O)C1CCC(N2CCc3cccc(c3)Oc3ccc4c(c3)CN(C(N)=N4)C(C(C)C)CCC2=O)CC1 (stereo not shown) [Compound 22]
β-secretase (BACE) [1]
  inhibition at 0.3 µM: 25%
  inhibition at 1 µM: 48%
  inhibition at 3 µM: 83%
β-secretase (BACE) [2]
  Ki: 750 nM

## CC(C)[C@@H]1CCC(=O)N([C@H]2CC[C@@H](C(=O)O)CC2)CCc2cccc(c2)Oc2ccc3c(c2)CN1C(N)=N3 [Compound 23]
β-secretase (BACE) [1]
  inhibition at 0.3 µM: 106%
  inhibition at 1 µM: 108%
  inhibition at 3 µM: 114%
β-secretase (BACE) [2]
  Ki: 13 nM

## CC(C)[C@@H]1CCC(=O)N([C@H]2CC[C@H](C(=O)O)CC2)CCc2cccc(c2)Oc2ccc3c(c2)CN1C(N)=N3 [Compound 24]
β-secretase (BACE) [1]
  inhibition at 0.3 µM: 27%
  inhibition at 1 µM: 43%
  inhibition at 3 µM: 77%
β-secretase (BACE) [2]
  Ki: 420 nM

## CC(C)C1CCC(=O)N(C2CCC(O)CC2)CCc2cccc(c2)Oc2ccc3c(c2)CN1C(N)=N3 (stereo not shown) [Compound 26]
β-secretase (BACE) [1]
  % Inhibition (Example 13) @ 0.3 μM: −8%
  % Inhibition (Example 13) @ 1 μM: 23%
  % Inhibition (Example 13) @ 3 μM: 58%

## CCOC(=O)C1CCC(N2CCc3cccc(c3)Oc3ccc4c(c3)CN(C(N)=N4)[C@H](C(C)C)CCC2=O)CC1 (stereo partly shown) [Compound 28]
β-secretase (BACE) [1]
  % Inhibition (Example 13) @ 0.3 μM: 4%
  % Inhibition (Example 13) @ 1 μM: 59%
  % Inhibition (Example 13) @ 3 μM: 110%

## NC1=Nc2ccc3cc2CN1[C@H](C1CCCCC1)CCC(=O)N([C@H]1CC[C@@H](C(=O)O)CC1)CCc1cccc(c1)O3 [Compound 29]
β-secretase (BACE) [1]
  inhibition at 0.3 µM: 120%
  inhibition at 1 µM: 116%
  inhibition at 3 µM: 125%

## CC(C)[C@@H]1CCC(=O)Nc2ccc3ccc(cc3c2)Oc2ccc3c(c2)CN1C(N)=N3 [Compound 31]
β-secretase (BACE) [1]
  % Inhibition (Example 13) @ 0.3 μM: 14%
  % Inhibition (Example 13) @ 1 μM: 16%
  % Inhibition (Example 13) @ 3 μM: −15%

## NC1=Nc2cnc3cc2CN1[C@H](C1CCCCC1)CCC(=O)N(C1CCCCC1)CCc1cccc(c1)O3 [Compound 32]
Human BACE-1
  IC50: 55 nM
Human BACE-1; [3]
  inhibition at 0.3 µM: 99%

## NC1=Nc2cnc3cc2CN1C(C1CCCCC1)CCC(=O)N(C1CCC(C(=O)O)CC1)CCc1cccc(c1)O3 (stereo not shown) [Compound 33]
Human BACE-1; [3]
  % Inhibition 0.3 μM: 15%

## NC1=Nc2cnc3cc2CN1[C@H](C1CCCCC1)CCC(=O)N([C@H]1CC[C@@H](O)CC1)CCc1cccc(c1)O3 [Compound 34]
Human BACE-1; [3]
  inhibition at 0.3 µM: 86%
Human BACE-1; [4]
  IC50: 210 nM

## NC1=Nc2ccc3cc2CN1[C@H](C1CCCCC1)CCC(=O)N([C@H]1CC[C@@H](O)CC1)CCc1cccc(c1)O3 [Compound 35]
Human BACE-1; [3]
  inhibition at 0.3 µM: 93%
Human BACE-1; [4]
  IC50: 83 nM

## CC(C)[C@@H]1CCC(=O)N(C2CCCCC2)C2CCc3ccc(cc32)Oc2ccc3c(c2)CN1C(N)=N3 (stereo partly shown) [Compound 36]
Human BACE-1; [3]
  % Inhibition 0.3 μM: 74%
Human BACE-1; [4]
  IC50: 150 nM

## NC1=Nc2cnc3cc2CN1[C@H](C1CCCCC1)CCC(=O)N(C1CCCC1)CCc1cccc(c1)O3 [Compound 37]
Human BACE-1; [3]
  inhibition at 0.3 µM: 100%
Human BACE-1; [4]
  IC50: 70 nM

## NC1=Nc2cnc3cc2CN1[C@H](C1CCCCC1)CCC(=O)N(CC1CC1)CCc1cccc(c1)O3 [Compound 38]
Human BACE-1; [3]
  inhibition at 0.3 µM: 97%
Human BACE-1; [4]
  IC50: 67 nM

## Nc1nc2ccc3cc2cc1C(C1CCCCC1)C/C=C/C(=O)N(C1CCCCC1)CCc1cccc(c1)O3 (stereo not shown) [Compound 39]
Human BACE-1; [3]
  inhibition at 1 µM: 53%
Human BACE-1; [4]
  IC50: 810 nM

## Nc1nc2ccc3cc2cc1C(C1CCCCC1)CCCC(=O)N(C1CCCCC1)CCc1cccc(c1)O3 (stereo not shown) [Compound 40]
Human BACE-1; [3]
  inhibition at 1 µM: 13%
